Assay results from patent US20230081390A1, “INHIBITORS OF RAF KINASES” (Kinnate Biopharma Inc., priority 2019, published 2023).

biological target: human RAF1 (Homo sapiens, UniProt P04049); experiment: Protein kinase assay (33P-ATP filter binding), human RAF1, 10-dose IC50; type: biochemical; details: MEK1 (K97R) substrate 3 micromolar, ATP 10 micromolar, read-out: RAF-1 IC50
Procedure, shortened: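 Radiometric filter-binding format: 10 µM ATP, 3 µM MEK1 (K97R) as substrate for human RAF1, 2 hr at room temperature in 20 mM HEPES pH 7.5 with 10 mM MgCl2. Compounds were dispensed acoustically from DMSO. IC50 came from percent kinase activity relative to vehicle over a 10-dose series.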

Chain of human RAF1 (P04049 whole entry): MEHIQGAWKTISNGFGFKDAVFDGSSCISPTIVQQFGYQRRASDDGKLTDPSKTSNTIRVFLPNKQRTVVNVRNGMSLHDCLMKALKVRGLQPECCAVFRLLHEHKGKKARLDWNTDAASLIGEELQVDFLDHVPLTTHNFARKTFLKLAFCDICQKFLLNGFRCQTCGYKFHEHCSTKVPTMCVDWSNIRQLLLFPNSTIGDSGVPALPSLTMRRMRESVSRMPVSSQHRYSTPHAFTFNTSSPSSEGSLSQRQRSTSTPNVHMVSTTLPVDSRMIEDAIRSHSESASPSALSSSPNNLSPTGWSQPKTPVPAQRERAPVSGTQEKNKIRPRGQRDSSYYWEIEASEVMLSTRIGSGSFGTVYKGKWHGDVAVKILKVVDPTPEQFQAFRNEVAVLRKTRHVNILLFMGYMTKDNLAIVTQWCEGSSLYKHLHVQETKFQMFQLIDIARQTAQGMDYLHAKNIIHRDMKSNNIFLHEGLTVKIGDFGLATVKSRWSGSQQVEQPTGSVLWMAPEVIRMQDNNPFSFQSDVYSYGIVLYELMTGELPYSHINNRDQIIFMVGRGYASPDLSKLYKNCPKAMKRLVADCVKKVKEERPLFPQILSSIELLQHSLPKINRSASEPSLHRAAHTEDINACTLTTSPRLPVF

Cc1cc(F)c(NC(=O)N2CC3(C(F)(F)F)CC2CO3)cc1-c1cc(OCCO)nc(N2CCOCC2)c1 (centres unmarked) [Example 107, N-[2-fluoro-5-[2-(2-hydroxyethoxy)-6-(morpholin-4-yl)pyridin-4-yl]-4-methylphenyl]-1-(trifluoromethyl)-2-oxa-5-azabicyclo[2.2.1]heptane-5-carboxamide] and Cc1ccc(NC(=O)N2C[C@@H](OC(F)(F)F)CO2)cc1-c1cc(OCCO)nc(N2CCOCC2)c1 [Example 144, (4R)-N-[3-[2-(2-hydroxyethoxy)-6-(morpholin-4-yl)pyridin-4-yl]-4-methylphenyl]-4-(trifluoromethoxy)-1,2-oxazolidine-2-carboxamide] cannot be ordered by IC50: under 10 nM for the first, under 10 nM for the second.

Cc1ccc(NC(=O)N2CCC(C3CC3(F)F)C2)cc1-c1cc(OCCO)nc(N2CCOCC2)c1 (centres unmarked) [Example 114, 3-(2,2-difluorocyclopropyl)-N-[3-[2-(2-hydroxyethoxy)-6-(morpholin-4-yl)pyridin-4-yl]-4-methylphenyl]pyrrolidine-1-carboxamide] and Cc1ccc(NC(=O)N2CC[C@H](OC(C)(F)F)C2)cc1-c1cc(OCCO)nc(N2CCOCC2)c1 [Example 140, (3S)-3-(1,1-difluoroethoxy)-N-[3-[2-(2-hydroxyethoxy)-6-(morpholin-4-yl)pyridin-4-yl]-4-methylphenyl]pyrrolidine-1-carboxamide] cannot be ordered by IC50: under 10 nM for the first, under 10 nM for the second.

Cc1ccc(NC(=O)N2CCC(CC(F)(F)F)C2)cc1-c1cnc(OC2CCOCC2)c(N2CCOCC2)c1 (centres unmarked) [Example 123, N-[4-methyl-3-[5-(morpholin-4-yl)-6-(oxan-4-yloxy)pyridin-3-yl]phenyl]-3-(2,2,2-trifluoroethyl)pyrrolidine-1-carboxamide] and Cc1ccc(NC(=O)N2CC[C@@H](OC(F)(F)F)C2)cc1-c1cnc(OC2CCOCC2)c(N2CCOCC2)c1 [Example 128, (3R)-N-[4-methyl-3-[5-(morpholin-4-yl)-6-(oxan-4-yloxy)pyridin-3-yl]phenyl]-3-(trifluoromethoxy)pyrrolidine-1-carboxamide] cannot be ordered by IC50: under 10 nM for the first, under 10 nM for the second.

Cc1ccc(NC(=O)Nc2cnn(C(F)(F)F)c2)cc1-c1cc(OCCO)nc(N2CCOCC2)c1 [Example 125, 1-[3-[2-(2-hydroxyethoxy)-6-(morpholin-4-yl)pyridin-4-yl]-4-methylphenyl]-3-[1-(trifluoromethyl)pyrazol-4-yl]urea] and Cc1ccc(NC(=O)Nc2cnn(CC(F)(F)F)c2)cc1-c1cc(OCCO)nc(N2CCOCC2)c1 [Example 135, 1-[3-[2-(2-hydroxyethoxy)-6-(morpholin-4-yl)pyridin-4-yl]-4-methylphenyl]-3-[1-(2,2,2-trifluoroethyl)pyrazol-4-yl]urea] cannot be ordered by IC50: under 10 nM for the first, under 10 nM for the second.

Cc1cc(F)c(NC(=O)N2CC[C@@H](OC(F)(F)F)C2)cc1-c1cnc(OC2CCOCC2)c(N2CCOCC2)c1 [Example 126, (3R)-N-[2-fluoro-4-methyl-5-[5-(morpholin-4-yl)-6-(oxan-4-yloxy)pyridin-3-yl]phenyl]-3-(trifluoromethoxy)pyrrolidine-1-carboxamide] and Cc1cc(F)c(NC(=O)N2CC[C@H](OC(F)(F)F)C2)cc1-c1cnc(OC2CCOCC2)c(N2CCOCC2)c1 [Example 127, (3S)-N-[2-fluoro-4-methyl-5-[5-(morpholin-4-yl)-6-(oxan-4-yloxy)pyridin-3-yl]phenyl]-3-(trifluoromethoxy)pyrrolidine-1-carboxamide] cannot be ordered by IC50: under 10 nM for the first, under 10 nM for the second.

Cc1ccc(NC(=O)N2CC[C@H](OC(F)(F)F)C2)cc1-c1cnc(OC2CCOCC2)c(N2CCOCC2)c1 [Example 129, (3S)-N-[4-methyl-3-[5-(morpholin-4-yl)-6-(oxan-4-yloxy)pyridin-3-yl]phenyl]-3-(trifluoromethoxy)pyrrolidine-1-carboxamide] and Cc1ccc(NC(=O)N2CC[C@@H](SC(F)(F)F)C2)cc1-c1cnc(OC2CCOCC2)c(N2CCOCC2)c1 [Example 131, (3R)-N-[4-methyl-3-[5-(morpholin-4-yl)-6-(oxan-4-yloxy)pyridin-3-yl]phenyl]-3-[(trifluoromethyl)sulfanyl]pyrrolidine-1-carboxamide] cannot be ordered by IC50: under 10 nM for the first, under 10 nM for the second.

Cc1ccc(NC(=O)Nc2cnn(C(F)(F)F)c2)cc1-c1cnc(OC2CCOCC2)c(N2CCOCC2)c1 [Example 130, 1-[4-methyl-3-[5-(morpholin-4-yl)-6-(oxan-4-yloxy)pyridin-3-yl]phenyl]-3-[1-(trifluoromethyl)pyrazol-4-yl]urea] and Cc1ccc(NC(=O)N2CC[C@H](SC(F)(F)F)C2)cc1-c1cnc(OC2CCOCC2)c(N2CCOCC2)c1 [Example 132, (3S)-N-[4-methyl-3-[5-(morpholin-4-yl)-6-(oxan-4-yloxy)pyridin-3-yl]phenyl]-3-[(trifluoromethyl)sulfanyl]pyrrolidine-1-carboxamide] cannot be ordered by IC50: under 10 nM for the first, under 10 nM for the second.

Cc1ccc(NC(=O)N2CC[C@@H](OCC(F)(F)F)C2)cc1-c1cc(OCCO)nc(N2CCOCC2)c1 [Example 133, (3R)-N-[3-[2-(2-hydroxyethoxy)-6-(morpholin-4-yl)pyridin-4-yl]-4-methylphenyl]-3-(2,2,2-trifluoroethoxy)pyrrolidine-1-carboxamide] and Cc1ccc(NC(=O)N2CC[C@H](OCC(F)(F)F)C2)cc1-c1cc(OCCO)nc(N2CCOCC2)c1 [Example 137, (3S)-N-[3-[2-(2-hydroxyethoxy)-6-(morpholin-4-yl)pyridin-4-yl]-4-methylphenyl]-3-(2,2,2-trifluoroethoxy)pyrrolidine-1-carboxamide] cannot be ordered by IC50: under 10 nM for the first, under 10 nM for the second.

Cc1ccc(NC(=O)N2CCC(S(=O)(=O)C(F)(F)F)C2)cc1-c1cc(OCCO)nc(N2CCOCC2)c1 (centres unmarked) [Example 134, N-[3-[2-(2-hydroxyethoxy)-6-(morpholin-4-yl)pyridin-4-yl]-4-methylphenyl]-3-trifluoromethanesulfonylpyrrolidine-1-carboxamide] and Cc1ccc(NC(=O)N2CC(O)C(CC(F)(F)F)C2)cc1-c1cc(OCCO)nc(N2CCOCC2)c1 (centres unmarked) [Example 148, 3-hydroxy-N-[3-[2-(2-hydroxyethoxy)-6-(morpholin-4-yl)pyridin-4-yl]-4-methylphenyl]-4-(2,2,2-trifluoroethyl)pyrrolidine-1-carboxamide] cannot be ordered by IC50: under 10 nM for the first, under 10 nM for the second.

Cc1ccc(NC(=O)N2CC/C(=C\C(F)(F)F)C2)cc1-c1cc(OCCO)nc(N2CCOCC2)c1 [Example 136, (3E)-N-[3-[2-(2-hydroxyethoxy)-6-(morpholin-4-yl)pyridin-4-yl]-4-methylphenyl]-3-(2,2,2-trifluoroethylidene)pyrrolidine-1-carboxamide] and Cc1ccc(NC(=O)N2CCC(=C3CC3)C2)cc1-c1cc(OCCO)nc(N2CCOCC2)c1 [Example 145, 3-cyclopropylidene-N-[3-[2-(2-hydroxyethoxy)-6-(morpholin-4-yl)pyridin-4-yl]-4-methylphenyl]pyrrolidine-1-carboxamide] cannot be ordered by IC50: under 10 nM for the first, under 10 nM for the second.

Cc1ccc(NC(=O)N2CC[C@H](OC(C)C)C2)cc1-c1cc(OCCO)nc(N2CCOCC2)c1 [Example 138, (3S)-N-[3-[2-(2-hydroxyethoxy)-6-(morpholin-4-yl)pyridin-4-yl]-4-methylphenyl]-3-isopropoxypyrrolidine-1-carboxamide] and Cc1ccc(NC(=O)N2CC[C@H](OC(F)(F)F)C2)cc1-c1cc(OC[C@H](C)O)nc(N2CCOCC2)c1 [Example 150, (3S)-N-(3-[2-[(2S)-2-hydroxypropoxy]-6-(morpholin-4-yl)pyridin-4-yl]-4-methylphenyl)-3-(trifluoromethoxy)pyrrolidine-- carboxamide] cannot be ordered by IC50: under 10 nM for the first, under 10 nM for the second.

Cc1ccc(NC(=O)Nc2cnn(C(C)C)c2)cc1-c1cc(OCCO)nc(N2CCOCC2)c1 [Example 139, 1-[3-[2-(2-hydroxyethoxy)-6-(morpholin-4-yl)pyridin-4-yl]-4-methylphenyl]-3-(1-isopropylpyrazol-4-yl)urea] and Cc1ccc(NC(=O)N(C)c2cnn(C(F)(F)F)c2)cc1-c1cc(OCCO)nc(N2CCOCC2)c1 [Example 141, 1-[3-[2-(2-hydroxyethoxy)-6-(morpholin-4-yl)pyridin-4-yl]-4-methylphenyl]-3-methyl-3-[1-(trifluoromethyl)pyrazol-4-yl]urea] cannot be ordered by IC50: under 10 nM for the first, under 10 nM for the second.

Cc1ccc(NC(=O)N2CC[C@H](OC(F)(F)F)C2)cc1-c1cc(OC[C@H](O)CO)nc(N2CCOCC2)c1 [Example 142, (3S)-N-(3-[2-[(2R)-2,3-dihydroxypropoxy]-6-(morpholin-4-yl)pyridin-4-yl]-4-methylphenyl)-3-(trifluoromethoxy)pyrrolidine-1-carboxamide] and Cc1ccc(NC(=O)N2CC[C@H](OC(F)(F)F)C2)cc1-c1cc(OC[C@@H](O)CO)nc(N2CCOCC2)c1 [Example 143, (3S)-N-(3-[2-[(2S)-2,3-dihydroxypropoxy]-6-(morpholin-4-yl)pyridin-4-yl]-4-methylphenyl)-3-(trifluoromethoxy)pyrrolidine-1-carboxamide] cannot be ordered by IC50: under 10 nM for the first, under 10 nM for the second.

Cc1ccc(NC(=O)N2CC(OC(F)(F)F)CN2)cc1-c1cc(OCCO)nc(N2CCOCC2)c1 (centres unmarked) [Example 146, N-[3-[2-(2-hydroxyethoxy)-6-(morpholin-4-yl)pyridin-4-yl]-4-methylphenyl]-4-(trifluoromethoxy) pyrazolidine-1-carboxamide] and Cc1ccc(NC(=O)N2CC[C@@H](OC(F)(F)F)C2)cc1-c1cc(OCC(C)(C)O)nc(N2CCOCC2)c1 [Example 149, (3R)-N-[3-[2-(2-hydroxy-2-methylpropoxy)-6-(morpholin-4-yl)pyridin-4-yl]-4-methylphenyl]-3-(trifluoromethoxy)pyrrolidine-1-carboxamide] cannot be ordered by IC50: under 10 nM for the first, under 10 nM for the second.

Compound Cc1ccc(NC(=O)n2ccc(C(=O)C(F)(F)F)c2)cc1-c1cc(OCCO)nc(N2CCOCC2)c1 [Example 147, N-[3-[2-(2-hydroxyethoxy)-6-(morpholin-4-yl)pyridin-4-yl]-4-methylphenyl]-3-(2,2,2-trifluoroacetyl)pyrrole-1-carboxamide] has an IC50 of 1000 to 10000 nM.
